The values that follow come from US4895853A, “Antitumor alkaloids” (priority 1986, dated 1990).

The assay deals with P388 mouse leukemia cells. In words: P388 mouse leukemia cell assay (growth inhibition, 48 h). Conditions: read-out: P388 IC50. The format is cell-based. The protocol: The following assay method was utilized to illustrate the antitumor effectiveness of the compositions of Formulae I-V corresponding to manzamines B-D of the examples.
P388 mouse leukemia cells are grown in Dulbecco MEM medium with 10% horse serum, 4 mM glutamine, and 20 ug/ml gentamycin (Biologos, Inc.). Cells are incubated in 10% CO2 and subcultured 2 times per week.
1. Add compound to each well of a 24-well plate or tube and allow solvent to evaporate to dryness.
2. Add 2 ml (1.2×10^5) cells to each well or tube and mix.
3. Incubate in 10% CO2 at 37° for 48 hours.
4. Read platees with an inverted microscope, scoring activity from 1+ to 4+ as follows: ND (not detectable), >90%; 1+, 75-90%; 2+, 50-74%; 3+, 25-49%; 4+, <25% of control growth. Cell counts are performed on each tube and results are reported as percent of control. Alternatively, scoring may be expressed as IC50 which represents the minimum concentration of the composition required to inhibit 50% of the cell growth on the plate. […]

≈ marks a conversion by molar mass, not a printed value. Like-named read-outs stand apart in the source and are kept apart here.

Usually IC50 stands for the point on the concentration scale where inhibition reaches its midpoint. With `OC12C=C(c3nccc4c3[nH]c3ccccc34)C3CCN(CCCC/C=C\CC1)CC31CC3/C=C\CCCCN3C21` (stereo not shown) [Manzamine A, manzamine A, reference compound], under “Mus musculus, P388, 48 h”, the IC50 turned out to be 0.075 µg/mL (≈ 0.137 µM).
The same measure, in the same setting: for `C1=C\CCC23CN4CCCC/C=C\CCC5(OC5C(c5nccc6c5[nH]c5ccccc56)C2CC4)C3NCCCC/1` (stereo not shown) [Manzamine B, manzamine B] the value was 6 µg/mL (≈ 10.9 µM).
Regarding `C1=C\CCCCN(CCc2nccc3c2[nH]c2ccccc23)CCCC/1` [Manzamine C, manzamine C], the half-maximal inhibitory concentration (IC50) (P388 mouse leukemia cells, 48 hours at 37°, 10% CO2) came out at 3 µg/mL (≈ 8.63 µM).
In the case of `OC12C=C(C3NCCc4c3[nH]c3ccccc43)C3CCN(CCCC/C=C\CC1)CC31CC3/C=C\CCCCN3C21` (stereo not shown) [Manzamine D, manzamine D], the concentration for half-maximal inhibition (IC50) (Mus musculus, P388, 48 h) worked out at 0.5 µg/mL (≈ 0.904 µM).
